Laboratory results taken from a melting point compilation (Tetko et al.; mined from patent text by program, amines drawn as free bases though some values may be those of a salt).

Question: With `C=CCc1c(O)c(C)cc2ccc(=O)oc12` as the molecule, how does the melting point read?
Answer: 161 to 162 °C

Question: Which melting point does the source give for `CCCN1CC(CSC)=C[C@H]2Cc3n[nH]cc3C[C@@H]21` (relative stereo) here?
Answer: 133 to 134 °C

Question: For `O=C1N(CCN2CCC(c3noc4cc(F)ccc34)CC2)CCN1c1ccccc1`, which melting point is on record?
Answer: 158 to 160 °C

Question: Which melting point does the source give for `CCCc1c(C#N)c(-c2ccc(C#N)cc2)c(C)n1Cc1cnc(Cl)c(COC(=O)CCC(=O)O)c1` here?
Answer: 167 to 168 °C

Question: Which melting point does the source give for `CCCN(CCC)c1nc2c(N3CCCCCC3)nc(N3CCCCCC3)cc2c(=O)[nH]1` here?
Answer: 220 °C

Question: Which melting point does the source give for `CCC(O)(CC)[C@H](Nc1nnc(-c2c(OS(=O)(=O)C(F)(F)F)ccc3ccccc23)c2ccccc12)c1ccccc1` here?
Answer: 117 to 119 °C

Question: For `CC(=O)NC(Cc1ccc(OCCc2nc(-c3ccccc3)oc2C)cc1)C(N)=O` (stereo unspecified), which melting point is on record?
Answer: 224 to 226 °C

Question: Which melting point does the source give for `Cc1ccc2c(c1)OC(CCO)C(=O)N2Cc1cccc(Cl)c1` (stereo unspecified) here?
Answer: 72 to 74 °C

Question: Which melting point does the source give for `COc1ccc(Nc2ncccc2NS(=O)(=O)c2ccc(OC)cc2)cc1` here?
Answer: 145 to 147 °C

Question: For `CS(=O)(=O)NCCSc1cccc2nccn12`, which melting point is on record?
Answer: 130 to 131 °C

Question: With `CN1CCC(c2c[nH]c3ccc(OS(=O)(=O)c4c(F)cccc4F)cc23)CC1` as the molecule, how does the melting point read?
Answer: 214 to 215 °C

Question: Which melting point does the source give for `Cn1nc(-c2c(F)cccc2Cl)nc1-c1ccc(COc2ncc(Cl)cc2Cl)c(Cl)c1` here?
Answer: 153 to 155 °C

Question: Which melting point does the source give for `Cc1cc([N+](=O)[O-])cc(C)c1-c1ccc(-c2c(C)cc([N+](=O)[O-])cc2C)o1` here?
Answer: 156 to 158 °C

Question: For `O=C(O)c1ccccc1-c1ccc([N+](=O)[O-])cn1`, which melting point is on record?
Answer: 262 to 264 °C

Question: Which melting point does the source give for `CCOC(=O)c1cn(-c2nnc(C)s2)cn1` here?
Answer: 121 to 122 °C

Question: With `CCOC(=O)c1c(C)[nH]c(C)c1CC` as the molecule, how does the melting point read?
Answer: 105 to 107 °C

Question: With `CC(C)(COC(c1ccccc1)(c1ccccc1)c1ccccc1)C(=O)O` as the molecule, how does the melting point read?
Answer: 153 to 158 °C

Question: With `COCn1ccnc1C(O)(c1ccc(C(F)(F)F)cc1)c1ccc(C(F)(F)F)cc1` as the molecule, how does the melting point read?
Answer: 160 to 161 °C

Question: For `Cn1cc(C2=C(c3ccc4ccccc4c3)C(=O)NC2=O)c2ccccc21`, which melting point is on record?
Answer: 180 to 184 °C

Question: With `COCCOc1ccc(C(=O)C2=C(O)C(=O)N(c3ccc(C)nn3)C2c2ccc(OC(F)(F)F)cc2)cc1` (stereo unspecified) as the molecule, how does the melting point read?
Answer: 216 to 219 °C

Question: Which melting point does the source give for `CCc1nc2c(N)nc3cc(/C=C/C(=O)N(C)C)ccc3c2n1CC1CCOCC1` here?
Answer: > 260 °C

Question: With `COc1ccc(/C=C/c2ccc3nc(C(=O)N[C@@H](Cc4ccc(OCc5ccccc5)cc4)C(=O)O)cn3c2)cc1` as the molecule, how does the melting point read?
Answer: 262 to 263 °C

Question: Which melting point does the source give for `C#CCNC(=O)c1nn(-c2c(Cl)cc(C(F)(F)F)cc2Cl)c(N)c1S(=O)C(F)(F)F` (stereo unspecified) here?
Answer: 207 °C

Question: For `CCCCOC(=O)c1ccc2ccc(C=O)nc2c1OC(=O)C(C)(C)C`, which melting point is on record?
Answer: 108 °C

Question: With `O=[N+]([O-])c1cccc(NN=C(c2ccc(O)cc2)c2ccc(O)cc2)c1` as the molecule, how does the melting point read?
Answer: 160 to 162 °C

Question: With `CCN(C=Nc1ccc2c(c1)nc(N(C)C)c1cc(N=CN(CC)CC)ccc12)CC` as the molecule, how does the melting point read?
Answer: 124 to 126 °C

Question: For `OCCCc1cnoc1-c1ccc(Cl)c(F)c1`, which melting point is on record?
Answer: 51 to 52 °C

Question: With `Oc1ccc2c3c1OC1C(O)CCC4(F)C(C2)N(CC2CCC2)CCC314` (stereo unspecified) as the molecule, how does the melting point read?
Answer: 236 to 239 °C

Question: For `COC(=O)/C=C/C(=O)O[C@@H](C)C(=O)N1CCOCC1`, which melting point is on record?
Answer: 79 to 82 °C

Question: With `NC(=O)Cc1cc(Oc2ccc3c(ccn3C(=O)Nc3ccc(CN4CCOCC4)c(C(F)(F)F)c3)c2)ncn1` as the molecule, how does the melting point read?
Answer: 219 to 221 °C

Question: For `S=c1c2[nH]cnc2c2cccnc2n1-c1ccccc1`, which melting point is on record?
Answer: > 300 °C

Question: For `Cc1ncc(CN2CCc3ccccc3C2)c(N)n1`, which melting point is on record?
Answer: 150 to 153 °C

Question: Which melting point does the source give for `CC(C)(C)P(=O)(CCC(=O)O)CCC(=O)O` here?
Answer: 174 °C

Question: With `CCCC(=O)O[C@H]1[C@H](OCc2ccccc2)[C@@H](OCc2ccccc2)[C@H](OCc2ccccc2)[C@@H](OCc2ccccc2)[C@]1(O)CCC` (racemic) as the molecule, how does the melting point read?
Answer: 143 °C

Question: Which melting point does the source give for `CC(C)(C)c1ccc(CCOc2ncnc3cnccc23)cc1` here?
Answer: 59 to 60 °C

Question: Which melting point does the source give for `Cc1ccc(S(=O)(=O)Nc2cccc(-c3cc(O)c(SCCc4ccccc4)c(=O)o3)c2)cc1` here?
Answer: 133 to 135 °C

Question: Which melting point does the source give for `COC(=O)c1cccc(NC(=O)C=Cc2ccc(OC)c(OC)c2)c1N` here?
Answer: 144 to 146 °C

Question: For `COc1cc2ccccc2c(=O)c2cc(Cl)sc12`, which melting point is on record?
Answer: 190 to 194 °C

Question: With `Cc1nc(N2CCN(Cc3ccc(F)cc3)C2=O)sc1C(=O)NCc1ccccc1` as the molecule, how does the melting point read?
Answer: 192 to 193 °C

Question: With `COc1ccc(-c2nc3cnc4ccccc4c3n2CC(C)C)cc1OC` as the molecule, how does the melting point read?
Answer: 192 to 199 °C

Question: With `C=C(C(=O)c1ccc(OC)c(Cl)c1Cl)C(C)C` as the molecule, how does the melting point read?
Answer: 46 to 51 °C

Question: Which melting point does the source give for `CS(=O)(=O)c1ccc(-c2cnn(-c3cccc(Cl)c3)c(=O)c2Cc2ccc(F)cc2)cc1` here?
Answer: 183 to 185 °C

Question: With `OCc1ccc2[nH]cc(CCCCN3CC=C(c4ccccc4)CC3)c2c1` as the molecule, how does the melting point read?
Answer: 162 to 164 °C

Question: For `Cn1c(=O)c2cccc(N)c2c(=O)c2ccccc21`, which melting point is on record?
Answer: 171 to 173 °C

Question: With `CC(C)Sc1cn(C)cc(-c2ccc(Cl)c(C(F)(F)F)c2)c1=O` as the molecule, how does the melting point read?
Answer: 127 to 129 °C

Question: Which melting point does the source give for `CCOc1ccccc1CS(N)(=O)=O` here?
Answer: 92 to 93 °C

Question: With `COC(=O)c1ccc(NC(=O)CBr)cc1` as the molecule, how does the melting point read?
Answer: 144 to 146 °C

Question: For `COc1ccc(N2CCN(c3c(C)c(C)c4c(c3C)OC(C)(C)C4c3ccc(C)cc3)CC2)cc1` (stereo unspecified), which melting point is on record?
Answer: 160 to 162 °C

Question: For `CC(C)c1ccc(N2Cc3ccc(Cl)cc3C2=O)cc1`, which melting point is on record?
Answer: 206 to 209 °C

Question: For `COCc1cnc(NC(=O)C(Cc2ccc(F)cc2)c2ccc(S(C)(=O)=O)cc2)cn1` (stereo unspecified), which melting point is on record?
Answer: 69 to 82.3 °C

Question: With `O=P(O)(O)C1(P(=O)(O)O)CCCCN1` as the molecule, how does the melting point read?
Answer: 70 °C

Question: Which melting point does the source give for `Cc1ccc(S(=O)(=O)n2c(-c3cn(C)c4ccc(O)cc34)cc3cccnc32)cc1` here?
Answer: 256 to 257 °C

Question: Which melting point does the source give for `COc1ccnc(CSc2nc3c(OC(F)F)c(OC)c(OC)cc3[nH]2)c1` here?
Answer: 112 to 114 °C

Question: With `N#CCc1ccc(-c2cn3ccccc3n2)cc1` as the molecule, how does the melting point read?
Answer: 175 to 177 °C

Question: Which melting point does the source give for `COc1ccc2c(c1)CCCC2(N)CO` (stereo unspecified) here?
Answer: 89 to 95.6 °C

Question: Which melting point does the source give for `Cc1nncn1-c1ccc(Cl)cc1C(=O)O` here?
Answer: 252 to 254 °C

Question: Which melting point does the source give for `COc1ccc(NC(C)=O)cc1NC(=O)NC(=O)c1cc(F)c(F)cc1Cl` here?
Answer: 225 to 228 °C

Question: Which melting point does the source give for `O=C(c1ccccc1)c1c[nH]c2cnccc12` here?
Answer: 218 to 220 °C

Question: Which melting point does the source give for `CCNCC1CCN(c2nc3c(cc2F)c(=O)c(C(=O)O)cn3CC)C1` (stereo unspecified) here?
Answer: 230 to 232 °C

Question: Which melting point does the source give for `c1ccc(OCCSCc2nnc(-c3ccc(OCCCCN4CCOCC4)cc3)o2)cc1` here?
Answer: 64 to 67 °C

Question: Which melting point does the source give for `NC(=O)c1cnc(C(N)=O)cn1` here?
Answer: > 270 °C

Question: With `CN(C)CCN1C(=O)c2cscc2N(C)c2ncccc21` as the molecule, how does the melting point read?
Answer: 129 to 130 °C

Question: With `O=c1[nH]c2cc(Cl)ccc2c(O)c1Sc1ccccc1Br` as the molecule, how does the melting point read?
Answer: > 300 °C

Question: Which melting point does the source give for `CCOC(=O)C(C)Oc1ccc([N+](=O)[O-])cc1` (stereo unspecified) here?
Answer: 55 to 56 °C

Question: Which melting point does the source give for `CCCCc1nc2c(N)nc3ccccc3c2n1CCCNC(=O)N1CCOCC1` here?
Answer: 193 to 195 °C

Question: With `Oc1ccc(C(=Cc2ccccc2)c2ccc(O)c(O)c2O)c(O)c1O` as the molecule, how does the melting point read?
Answer: 142 to 143 °C

Question: With `CN1CCC2(CC1)OC(c1ccc(Cl)cc1)C1CCCCN12` (stereo unspecified) as the molecule, how does the melting point read?
Answer: 122 to 124 °C

Question: With `Nc1c(Cl)cc(C(O)CNCCCCCCOCCc2ccccn2)cc1C(F)(F)F` (stereo unspecified) as the molecule, how does the melting point read?
Answer: 51.5 to 53 °C

Question: Which melting point does the source give for `OCC1OC(n2cnc3c(Nc4ccccc4Cl)ccnc32)C(O)C1O` (stereo unspecified) here?
Answer: 207 °C

Question: With `NS(=O)(=O)c1cc(C(=O)O)cc(N2CCCC2=O)c1Oc1ccccc1` as the molecule, how does the melting point read?
Answer: 282 to 285 °C

Question: Which melting point does the source give for `O=C(O)Cc1c(-c2ccccc2)nn(C2CCCCC2)c1-c1ccccc1` here?
Answer: 229 to 231 °C
